Publication PMC7470941 (2020)

Tests used:
[1] = tested on: FPON1 (DNA, i motif, 5'-fluoromonophosphate) TCCCCC; test: 19F NMR titration; conditions: Na+ (50 mM sodium citrate); pH 4.2, 10% D2O, 25 °C; 500 μM FPON1 (125 μM i-motif), 100 μM AMPF reference
[2] = tested on: FP-hTeloC (DNA, i motif, 5'-fluoromonophosphate) TAACCCTAACCCTAACCCTAACCC; test: UV/VIS melting, 295 nm; conditions: Na+ (50 mM citrate buffer); pH 5.5, 10% D2O; 4 μM DNA; destabilised by excess mitoxantrone
[3] = tested on: hTeloC (DNA, i motif) TAACCCTAACCCTAACCCTAACCC; test: UV/VIS melting, 295 nm; conditions: Na+ (50 mM citrate buffer); pH 5.5, 10% D2O; destabilised by excess mitoxantrone
[4] = tested on: FP-hTeloC (DNA, i motif, 5'-fluoromonophosphate) TAACCCTAACCCTAACCCTAACCC; test: 19F NMR melting, i-motif signal; conditions: Na+ (50 mM citrate buffer); pH 5.5, 10% D2O; 250 μM DNA, two equivalents mitoxantrone (+1.1 °C at 0.3 equivalents)
[5] = tested on: FP-hTeloC, ssDNA form at pH 6.4 (DNA, single strand, 5'-fluoromonophosphate) TAACCCTAACCCTAACCCTAACCC; test: 19F NMR chemical shift change; conditions: Na+ (10 mM sodium cacodylate, 100 mM NaCl); pH 6.4, 10% D2O; i-motif:ssDNA 45:55; ΔδF = −0.02 ppm
[6] = tested on: FP-hTeloC (DNA, i motif, 5'-fluoromonophosphate) TAACCCTAACCCTAACCCTAACCC; test: 19F NMR titration; conditions: Na+ (50 mM sodium citrate); apparent; pH 4.2, 10% D2O; 212.5 μM FP-hTeloC, 80 μM AMPF reference

SMILES: C[n+]1ccc(-c2c3nc(c(-c4cc[n+](C)cc4)c4ccc([nH]4)c(-c4cc[n+](C)cc4)c4nc(c(-c5cc[n+](C)cc5)c5ccc2[nH]5)C=C4)C=C3)cc1
- Kd [1]: 180 ± 30 µM

SMILES: O=C1c2c(O)ccc(O)c2C(=O)c2c(NCCNCCO)ccc(NCCNCCO)c21
- binding [2]: yes
- binding [3]: yes
- ΔTm [4]: −3.2 °C
- binding [5]: weak
- Kd [6]: 70 ± 30 µM
